Results from patent US20260193226A1, “MICROBIOCIDAL TETRAHYDROISOQUINOLINE DERIVATIVES” (SYNGENTA CROP PROTECTION AG, priority 2022, published 2026).

Key:
[1] = system: Mycosphaerella graminicola (Septoria tritici); assay: Mycosphaerella graminicola (Septoria tritici) / liquid culture (Septoria blotch); assay type: cell-based; conditions: Zymoseptoria tritici, compared to untreated control
Procedure: (§1) Example B15: Mycosphaerella graminicola (Septoria tritici)/Liquid Culture (Septoria Blotch) Conidia of the fungus from cryogenic storage are directly mixed into nutrient broth (PDB potato dextrose broth). After placing a (DMSO) solution of test compound into a microtiter plate (96-well format), the nutrient broth containing the fungal spores is added. The test plates are incubated at 24° C. and the inhibition of growth is determined photometrically 4 to 5 days after application.

[2] = system: Mycosphaerella arachidis (Cercospora arachidicola); assay: Mycosphaerella arachidis (Cercospora arachidicola) / liquid culture (early leaf spot); assay type: cell-based; conditions: compared to untreated control
Procedure: as §1, with “B9:” for “B15:”, “arachidis (Cercospora arachidicola)/Liquid” for “graminicola (Septoria tritici)/Liquid”, “(Early Leaf Spot)” for “(Septoria Blotch)”

Cc1c([C@H]2CN(C(=O)CCCC=C(F)F)[C@@H](C)c3ccccc32)cnn1C (racemic) [Compound P-26, 6,6-difluoro-1-[rac-(1S,4S)-4-(1,5-dimethylpyrazol-4-yl)-1-methyl-3,4-dihydro-1H-isoquinolin-2-yl]hex-5-en-1-one]
inhibition of growth at 20 ppm [1]: ≥ 80% | inhibition of growth at 20 ppm [2]: ≥ 80%

Cn1cc(C2CN(C(=O)CCc3ccc(F)cc3F)Cc3ccccc32)cn1 (stereo not drawn) [Compound P-1, 3-(2,4-difluorophenyl)-1-[4-(1-methylpyrazol-4-yl)-3,4-dihydro-1H-isoquinolin-2-yl]propan-1-one]
inhibition of growth at 20 ppm [1]: ≥ 80% | inhibition of growth at 20 ppm [2]: ≥ 80%

Cc1c(C2CN(C(=O)NCCCC3CCCC3)Cc3ccccc32)cnn1C (stereo not drawn) [Compound P-38, N-(3-cyclopentylpropyl)-4-(1,5-dimethylpyrazol-4-yl)-3,4-dihydro-1H-isoquinoline-2-carboxamide]
inhibition of growth at 20 ppm [1]: ≥ 80%

Cc1c([C@H]2CN(C(=O)NCc3ccc(F)cc3F)[C@@H](C)c3ccccc32)cnn1C (racemic) [Compound P-44, rac-(1S,4S)-N-[(2,4-difluorophenyl)methyl]-4-(1,5-dimethylpyrazol-4-yl)-1-methyl-3,4-dihydro-1H-isoquinoline-2-carboxamide]
inhibition of growth at 20 ppm [1]: ≥ 80%

Cc1c(C2CN(C(=O)OCCCCC(F)F)Cc3ccccc32)cnn1C (stereo not drawn) [Compound P-54, 5,5-difluoropentyl 4-(1,5-dimethylpyrazol-4-yl)-3,4-dihydro-1H-isoquinoline-2-carboxylate]
inhibition of growth at 20 ppm [1]: ≥ 80% | inhibition of growth at 20 ppm [2]: ≥ 80%

Cc1c(C2CN(C(=O)Nc3ccc(Cl)cc3)Cc3ccccc32)cnn1C (stereo not drawn) [Compound P-40, N-(4-chlorophenyl)-4-(1,5-dimethylpyrazol-4-yl)-3,4-dihydro-1H-isoquinoline-2-carboxamide]
inhibition of growth at 20 ppm [1]: ≥ 80%

Cc1c([C@H]2CN(C(=O)NCCCCC(F)F)[C@@H](C)c3ccccc32)cnn1C [Compound P-53, (1S,4S)-N-(5,5-difluoropentyl)-4-(1,5-dimethylpyrazol-4-yl)-1-methyl-3,4-dihydro-1H-isoquinoline-2-carboxamide]
inhibition of growth at 20 ppm [1]: ≥ 80%

Cc1c(C2CN(C(=O)NCCC(C)(C)C3CC3)Cc3ccccc32)cnn1C (stereo not drawn) [Compound P-39, N-(3-cyclopropyl-3-methyl-butyl)-4-(1,5-dimethylpyrazol-4-yl)-3,4-dihydro-1H-isoquinoline-2-carboxamide]
inhibition of growth at 20 ppm [1]: ≥ 80%

Cc1c(C2CN(C(=O)CCCCC3CCSS3)Cc3ccccc32)cnn1C (stereo not drawn) [Compound P-18, 1-[4-(1,5-dimethylpyrazol-4-yl)-3,4-dihydro-1H-isoquinolin-2-yl]-5-(dithiolan-3-yl)pentan-1-one]
inhibition of growth at 20 ppm [1]: ≥ 80%

Cc1c(C2CN(C(=O)COc3ccc(F)cc3F)Cc3ccccc32)cnn1C (stereo not drawn) [Compound P-13, 2-(2,4-difluorophenoxy)-1-[4-(1,5-dimethylpyrazol-4-yl)-3,4-dihydro-1H-isoquinolin-2-yl]ethanone]
inhibition of growth at 20 ppm [1]: ≥ 80%

Cc1c(C2CN(C(=O)CCCC(C)C)Cc3ccccc32)cnn1C (stereo not drawn) [Compound P-19, 1-[4-(1,5-dimethylpyrazol-4-yl)-3,4-dihydro-1H-isoquinolin-2-yl]-5-methyl-hexan-1-one]
inhibition of growth at 20 ppm [1]: ≥ 80% | inhibition of growth at 20 ppm [2]: ≥ 80%

CCCCCCCCCC(=O)N1Cc2ccccc2C(c2cnn(C)c2C)C1 (stereo not drawn) [Compound P-9, 1-[4-(1,5-dimethylpyrazol-4-yl)-3,4-dihydro-1H-isoquinolin-2-yl]decan-1-one]
inhibition of growth at 20 ppm [1]: ≥ 80%

Cc1c(C2CN(C(=O)CCCCC3CC3)Cc3ccccc32)cnn1C (stereo not drawn) [Compound P-48, 5-cyclopropyl-1-[4-(1,5-dimethylpyrazol-4-yl)-3,4-dihydro-1H-isoquinolin-2-yl]pentan-1-one]
inhibition of growth at 20 ppm [1]: ≥ 80%

C#CCCCCCC(=O)N1Cc2ccccc2C(c2cnn(C)c2C)C1 (stereo not drawn) [Compound P-21, 1-[4-(1,5-dimethylpyrazol-4-yl)-3,4-dihydro-1H-isoquinolin-2-yl]oct-7-yn-1-one]
inhibition of growth at 20 ppm [1]: ≥ 80%

Cc1c(C2CN(C(=O)NCCC3CCCCCC3)Cc3ccccc32)cnn1C (stereo not drawn) [Compound P-32, N-(2-cycloheptylethyl)-4-(1,5-dimethylpyrazol-4-yl)-3,4-dihydro-1H-isoquinoline-2-carboxamide]
inhibition of growth at 20 ppm [1]: ≥ 80%

Cc1c([C@H]2CN(C(=O)NCCCCCF)[C@@H](C)c3ccccc32)cnn1C [Compound P-52, (1S,4S)-4-(1,5-dimethylpyrazol-4-yl)-N-(5-fluoropentyl)-1-methyl-3,4-dihydro-1H-isoquinoline-2-carboxamide]
inhibition of growth at 20 ppm [1]: ≥ 80%

Cc1c(C2CN(C(=O)Nc3nc4ccccc4s3)Cc3ccccc32)cnn1C (stereo not drawn) [Compound P-33, N-(1,3-benzothiazol-2-yl)-4-(1,5-dimethylpyrazol-4-yl)-3,4-dihydro-1H-isoquinoline-2-carboxamide]
inhibition of growth at 20 ppm [1]: ≥ 80%

Cc1c(C2CN(C(=O)CCc3ccc(Cl)c(Cl)c3)Cc3ccccc32)cnn1C (stereo not drawn) [Compound P-23, 3-(3,4-dichlorophenyl)-1-[4-(1,5-dimethylpyrazol-4-yl)-3,4-dihydro-1H-isoquinolin-2-yl]propan-1-one]
inhibition of growth at 20 ppm [1]: ≥ 80%

CCCCCC(=O)N1Cc2ccccc2C(c2cnn(C)c2C)C1 (stereo not drawn) [Compound P-5, 1-[4-(1,5-dimethylpyrazol-4-yl)-3,4-dihydro-1H-isoquinolin-2-yl]hexan-1-one]
inhibition of growth at 20 ppm [1]: ≥ 80%

Cc1c(C2CN(C(=O)CCCC=C(F)F)Cc3ccccc32)cnn1C (stereo not drawn) [Compound P-24, 1-[4-(1,5-dimethylpyrazol-4-yl)-3,4-dihydro-1H-isoquinolin-2-yl]-6,6-difluoro-hex-5-en-1-one]
inhibition of growth at 20 ppm [1]: ≥ 80%

Cc1c([C@H]2CN(C(=O)NCCCC3CC3)[C@@H](C)c3ccccc32)cnn1C [Compound P-51, (1S,4S)-N-(3-cyclopropylpropyl)-4-(1,5-dimethylpyrazol-4-yl)-1-methyl-3,4-dihydro-1H-isoquinoline-2-carboxamide]
inhibition of growth at 20 ppm [1]: ≥ 80% | inhibition of growth at 20 ppm [2]: ≥ 80%

Cc1c(C2CN(C(=O)CCc3ccc(Br)cc3)Cc3ccccc32)cnn1C (stereo not drawn) [Compound P-20, 3-(4-bromophenyl)-1-[4-(1,5-dimethylpyrazol-4-yl)-3,4-dihydro-1H-isoquinolin-2-yl]propan-1-one]
inhibition of growth at 20 ppm [1]: ≥ 80%

Cc1c(C2CN(C(=O)OCCc3ccc(F)cc3)Cc3ccccc32)cnn1C (stereo not drawn) [Compound P-25, 2-(4-fluorophenyl)ethyl 4-(1,5-dimethylpyrazol-4-yl)-3,4-dihydro-1H-isoquinoline-2-carboxylate]
inhibition of growth at 20 ppm [1]: ≥ 80%

Cc1c(C2CN(C(=O)Nc3cc(C(C)(C)C)on3)Cc3ccccc32)cnn1C (stereo not drawn) [Compound P-34, N-(5-tert-butylisoxazol-3-yl)-4-(1,5-dimethylpyrazol-4-yl)-3,4-dihydro-1H-isoquinoline-2-carboxamide]
inhibition of growth at 20 ppm [1]: ≥ 80%

Cc1nc(NC(=O)N2Cc3ccccc3C(c3cnn(C)c3C)C2)ccc1Cl (stereo not drawn) [Compound P-35, N-(5-chloro-6-methyl-2-pyridyl)-4-(1,5-dimethylpyrazol-4-yl)-3,4-dihydro-1H-isoquinoline-2-carboxamide]
inhibition of growth at 20 ppm [1]: ≥ 80%

CCCCCCC(=O)N1Cc2ccccc2C(C)(c2cnn(C)c2)C1 (stereo not drawn) [Compound P-8, 1-[4-methyl-4-(1-methylpyrazol-4-yl)-1,3-dihydroisoquinolin-2-yl]heptan-1-one]
inhibition of growth at 20 ppm [1]: ≥ 80%

Cc1c(C2CN(C(=O)Nc3ccc(C4CC4)cc3)Cc3ccccc32)cnn1C (stereo not drawn) [Compound P-41, N-(4-cyclopropylphenyl)-4-(1,5-dimethylpyrazol-4-yl)-3,4-dihydro-1H-isoquinoline-2-carboxamide]
inhibition of growth at 20 ppm [1]: ≥ 80%

Cc1c(C2CN(C(=O)COCc3ccc(F)cc3F)Cc3ccccc32)cnn1C (stereo not drawn) [Compound P-15, 2-[(2,4-difluorophenyl)methoxy]-1-[4-(1,5-dimethylpyrazol-4-yl)-3,4-dihydro-1H-isoquinolin-2-yl]ethanone]
inhibition of growth at 20 ppm [1]: ≥ 80%

Cc1c(C2CN(C(=O)CSc3ccc(F)cc3F)Cc3ccccc32)cnn1C (stereo not drawn) [Compound P-14, 2-(2,4-difluorophenyl)sulfanyl-1-[4-(1,5-dimethylpyrazol-4-yl)-3,4-dihydro-1H-isoquinolin-2-yl]ethanone]
inhibition of growth at 20 ppm [1]: ≥ 80% | inhibition of growth at 20 ppm [2]: ≥ 80%

Cn1cc(C2(C)CN(C(=O)OCCC3CCCCC3)Cc3ccccc32)cn1 (stereo not drawn) [Compound P-12, 2-cyclohexylethyl 4-methyl-4-(1-methylpyrazol-4-yl)-1,3-dihydroisoquinoline-2-carboxylate]
inhibition of growth at 20 ppm [1]: ≥ 80%

Cc1c(C2CN(C(=O)OCCC3CC3)Cc3ccccc32)cnn1C (stereo not drawn) [Compound P-3, 2-cyclopropylethyl 4-(1,5-dimethylpyrazol-4-yl)-3,4-dihydro-1H-isoquinoline-2-carboxylate]
inhibition of growth at 20 ppm [1]: ≥ 80%

Cc1c(C2CN(C(=O)OCCCCCF)Cc3ccccc32)cnn1C (stereo not drawn) [Compound P-55, 5-fluoropentyl 4-(1,5-dimethylpyrazol-4-yl)-3,4-dihydro-1H-isoquinoline-2-carboxylate]
inhibition of growth at 20 ppm [1]: ≥ 80% | inhibition of growth at 20 ppm [2]: ≥ 80%
